Results as given in ChEMBL document CHEMBL1201862, “PubChem BioAssay data set” (2004).
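Assay format: 96-well plates, 48-hour exposure. At the GI50, growth is halved.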 Activity calls are given as the source filed them. No stated cut-off is given here; in the data, active = GI50 up to about 1.1 µM and inactive = higher.

Tests used:
Experiment in all cases: growth of human tumour cells (NCI), 48 h
[1] = tested on: TK-10
[2] = tested on: LOX IMVI
[3] = tested on: HOP-92
[4] = tested on: A549
[5] = tested on: U-251
[6] = tested on: PC-3
[7] = tested on: CAKI-1
[8] = tested on: NCI/ADR-RES
[9] = tested on: SN12C
[10] = tested on: HOP-62
[11] = tested on: MDA-N
[12] = tested on: RPMI-8226
[13] = tested on: Malme-3M
[14] = tested on: CCRF-CEM
[15] = tested on: NCI-H226
[16] = tested on: OVCAR-5
[17] = tested on: KM12
[18] = tested on: HT-29
[19] = tested on: Hs-578T
[20] = tested on: SR

Measured: GI50

NC(=S)SCCC(=O)O
inactive: [1] > 100 µM | [2] > 100 µM | [3] > 100 µM | [4] > 100 µM | [5] > 100 µM | [6] > 100 µM | [7] > 100 µM | [8] > 100 µM | [9] > 100 µM | [10] > 100 µM | [11] > 100 µM | [12] > 100 µM | [13] > 100 µM | [14] > 100 µM | [15] > 100 µM | [16] > 100 µM | [17] > 100 µM | [18] > 100 µM | [19] > 100 µM

O=C(N/N=C1/C(=O)c2c3ccccc3cc3cccc1c23)c1cccc(Cl)c1
inactive: [20] > 100 µM | [2] > 100 µM | [3] > 100 µM | [4] > 100 µM | [5] 94.8 µM | [6] > 100 µM | [7] > 100 µM | [8] > 100 µM | [9] > 100 µM | [10] 28.9 µM | [11] > 100 µM | [12] > 100 µM | [14] 67.6 µM | [15] > 100 µM | [16] > 100 µM | [17] > 100 µM | [18] > 100 µM | [19] 16 µM

S=C1Nc2ccccc2SC1c1ccccc1 (stereo unspecified)
inactive: [1] 56.6 µM | [20] 30.2 µM | [2] 49.7 µM | [4] > 100 µM | [5] 47.1 µM | [6] 57.9 µM | [7] > 100 µM | [8] 56.1 µM | [9] > 100 µM | [10] 24.8 µM | [11] > 100 µM | [12] > 100 µM | [13] 92.3 µM | [14] 2.96 µM | [15] 28.6 µM | [16] > 100 µM | [17] > 100 µM | [18] > 100 µM | [19] 19.9 µM

CCCCCCCCCCCCNC(=O)NCC(OCC)OCC
inactive: [1] > 10 µM | [20] > 10 µM | [2] > 10 µM | [3] > 10 µM | [4] > 10 µM | [5] > 10 µM | [6] > 10 µM | [7] > 10 µM | [9] > 10 µM | [10] > 10 µM | [11] > 10 µM | [12] > 10 µM | [14] > 10 µM | [15] > 10 µM | [16] > 10 µM | [17] > 10 µM | [18] > 10 µM | [19] > 10 µM

CC(C)CC1N=C(OCc2ccccc2)OC1=O (stereo unspecified)
inactive: [1] > 100 µM | [2] > 100 µM | [3] > 100 µM | [4] > 100 µM | [5] > 100 µM | [6] > 100 µM | [7] > 100 µM | [8] > 100 µM | [9] > 100 µM | [10] > 100 µM | [11] > 100 µM | [12] > 100 µM | [13] > 100 µM | [14] > 100 µM | [15] > 100 µM | [16] > 100 µM | [17] > 100 µM | [18] > 100 µM | [19] > 100 µM

S=C(N1CCN(c2ccc(Cl)c(Cl)c2)CC1)N1CCN(c2ccc(Cl)c(Cl)c2)CC1
inactive: [1] 13.4 µM | [20] 1.36 µM | [4] 16.3 µM | [5] 14.7 µM | [6] 12.7 µM | [7] 7.4 µM | [8] 16.3 µM | [10] 12.5 µM | [11] 11.6 µM | [12] 18 µM | [13] 14.2 µM | [14] 3.42 µM | [15] 11.1 µM | [16] 19.6 µM | [17] 14.1 µM | [18] 9.42 µM | [19] 6.52 µM

O=C1CN(c2cccc(C(F)(F)F)c2)C(=O)CN1NCNN1CC(=O)N(c2cccc(C(F)(F)F)c2)CC1=O
inactive: [1] > 100 µM | [20] > 100 µM | [4] > 100 µM | [5] > 100 µM | [6] > 100 µM | [8] > 100 µM | [9] > 100 µM | [10] > 100 µM | [11] > 100 µM | [12] > 100 µM | [14] > 100 µM | [16] > 100 µM | [17] 36 µM | [18] > 100 µM | [19] > 100 µM

CN(C)CCn1c(=O)oc2cc(C(=O)CN3CCOCC3)ccc21
inactive: [1] > 100 µM | [20] > 100 µM | [2] > 100 µM | [5] > 100 µM | [6] > 100 µM | [7] > 100 µM | [8] > 100 µM | [9] > 100 µM | [10] > 100 µM | [11] > 100 µM | [12] > 100 µM | [13] > 100 µM | [14] > 100 µM | [15] > 100 µM | [16] > 100 µM | [17] > 100 µM | [18] > 100 µM | [19] > 100 µM

Cn1cc(C=C(C#N)C#N)c(=O)n(C)c1=O
inactive: [1] > 100 µM | [2] > 100 µM | [3] > 100 µM | [4] > 100 µM | [5] > 100 µM | [6] > 100 µM | [7] > 100 µM | [8] > 100 µM | [9] > 100 µM | [10] > 100 µM | [11] > 100 µM | [12] 52 µM | [15] > 100 µM | [16] > 100 µM | [17] > 100 µM | [18] > 100 µM | [19] > 100 µM

Cc1ccc(S(=O)(=O)NC(CN)C(=O)O)cc1 (stereo unspecified)
inactive: [1] > 100 µM | [2] > 100 µM | [3] > 100 µM | [4] > 100 µM | [5] > 100 µM | [6] > 100 µM | [7] > 100 µM | [8] > 100 µM | [10] > 100 µM | [11] > 100 µM | [12] > 100 µM | [13] > 100 µM | [15] > 100 µM | [16] > 100 µM | [17] > 100 µM | [18] > 100 µM | [19] > 100 µM

CCCc1cn2c(/C=N/N=C(N)N)c(-c3c(OC)ccc(OC)c3[N+](=O)[O-])nc2s1
inactive: [1] 16.8 µM | [20] 2.03 µM | [2] 3.02 µM | [3] 12.5 µM | [4] 19.4 µM | [5] 4.74 µM | [6] 9.59 µM | [7] 5.57 µM | [8] 19.8 µM | [9] 14.2 µM | [10] 12.6 µM | [12] 2.54 µM | [13] 10.3 µM | [14] 2.84 µM | [15] 11.4 µM | [16] 15.6 µM | [17] 3.16 µM | [18] 4.06 µM | [19] 13.1 µM

CCOC(=O)C(C)c1nc2cc(F)c(F)cc2[nH]c1=O (stereo unspecified)
inactive: [1] > 100 µM | [2] > 100 µM | [3] > 100 µM | [4] > 100 µM | [5] > 100 µM | [6] > 100 µM | [7] > 100 µM | [8] > 100 µM | [9] > 100 µM | [10] > 100 µM | [11] > 100 µM | [12] > 100 µM | [13] > 100 µM | [14] > 100 µM | [15] > 100 µM | [16] > 100 µM | [17] > 100 µM | [18] > 100 µM | [19] > 100 µM

C[n+]1c(-c2ccc(/C=N/NC(=S)N/N=C/c3ccc(-c4cn5ccsc5[n+]4C)cc3)cc2)cn2ccsc21
inactive: [1] > 100 µM | [20] > 100 µM | [4] > 100 µM | [5] > 100 µM | [6] > 100 µM | [8] > 100 µM | [9] > 100 µM | [10] > 100 µM | [11] 45.2 µM | [12] 62.1 µM | [14] 36.6 µM | [16] > 100 µM | [17] > 100 µM | [18] 75.5 µM | [19] > 100 µM

CC(C)=C[C@@H]1C[C@H](C)c2c(O)cc(C)c3c2C1=C(C)C(=O)C3=O [ELISABATIN A]
inactive: [1] 22.3 µM | [2] 16.3 µM | [3] 13.4 µM | [4] 10.1 µM | [5] 13.8 µM | [6] 10.5 µM | [7] 16.6 µM | [8] 18.9 µM | [9] 15 µM | [10] 17.4 µM | [11] 16.3 µM | [12] 18.2 µM | [13] 16 µM | [14] 22.4 µM | [15] 16.3 µM | [16] 24.7 µM | [17] 15.6 µM | [18] 19.4 µM | [19] 19.6 µM

CN(C)C(=O)Oc1ccc[n+](C)c1 [PYRIDOSTIGMINE BROMIDE]
inactive: [1] > 100 µM | [20] 8.28 µM | [2] > 100 µM | [5] > 100 µM | [6] > 100 µM | [7] > 100 µM | [8] > 100 µM | [9] > 100 µM | [10] > 100 µM | [11] > 100 µM | [12] > 100 µM | [13] > 100 µM | [15] > 100 µM | [16] > 100 µM | [17] > 100 µM | [18] > 100 µM | [19] > 100 µM
